According to patent US20080194024A1, “Culture of Non-Embryonic Cells at High Cell Density” (priority 2005, published 2008):
Like-named read-outs stand apart in the source and are kept apart here.

Legend:
GSK-3 = conditions: study cited did not specify which isoform(s) was tested; value marked a: L. Meijer et al., unpublished; read-out: IC50 GSK-α and GSK-3β, isoform not specified; cited from earlier work
CDK1-cyclin B complex = conditions: cited from earlier work; for IC50: values marked a: L. Meijer et al., unpublished
CDK2 and CDK5 = conditions: printed in the CDK1-cyclin B column with note (CDK2 and CDK5); cited from earlier work
[1] = tested on: human embryonic stem (ES) cells; conditions: substitutes for feeder cultures or exogenous cytokines; expression of Oct-3a, Rex-1 and Nanog; cited from earlier work
[2] = tested on: mouse embryonic stem (ES) cells; conditions: substitutes for feeder cultures or exogenous cytokines; expression of Oct-3a, Rex-1 and Nanog; cited from earlier work
Murine MAPCs [3] = test: Quantitative RT-PCR of MAPCs treated with BIO; format: cell-based, mouse
Murine MAPCs [4] = test: Immunohistochemistry of MAPCs treated with BIO; format: cell-based, mouse
Murine MAPCs [5] = test: MAPC culture with BIO, morphology (clustering); format: cell-based, mouse; conditions: 0.1-2 microM BIO; from 4 days after treatment; at both cell densities
[6] = tested on: GSK-3 (α/β) mixture of isoforms; conditions: cited from earlier work
GSK-3β = GSK-3β (Homo sapiens, UniProt P49841)
[7] = tested on: mouse mesodermal stem cell line differentiated into a myoblastic lineage; conditions: Chen, S., et al. (2003); cited from earlier work
GSK-3α = GSK-3α (Homo sapiens, UniProt P49840); conditions: cited from earlier work
[8] = MAPCs maintained at low density
[9] = high concentration of BIO, MAPCs maintained at low density
[10] = mixture of isoforms tested, values marked a: L. Meijer et al., unpublished

GSK-3β, sequence (P49841 whole entry, species assumed): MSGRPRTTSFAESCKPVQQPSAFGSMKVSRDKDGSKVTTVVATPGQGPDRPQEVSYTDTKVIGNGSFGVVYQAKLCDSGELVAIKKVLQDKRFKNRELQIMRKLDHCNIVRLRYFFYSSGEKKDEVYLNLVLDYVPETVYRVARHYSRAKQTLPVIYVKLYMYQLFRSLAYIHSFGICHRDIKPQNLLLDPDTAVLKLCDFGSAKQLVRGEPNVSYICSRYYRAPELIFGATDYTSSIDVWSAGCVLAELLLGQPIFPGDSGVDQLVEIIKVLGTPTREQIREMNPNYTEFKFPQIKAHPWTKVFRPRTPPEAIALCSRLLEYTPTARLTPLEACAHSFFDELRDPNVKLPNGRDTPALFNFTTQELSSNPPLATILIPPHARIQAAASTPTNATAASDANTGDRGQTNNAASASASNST
GSK-3α, sequence (P49840 whole entry, species assumed): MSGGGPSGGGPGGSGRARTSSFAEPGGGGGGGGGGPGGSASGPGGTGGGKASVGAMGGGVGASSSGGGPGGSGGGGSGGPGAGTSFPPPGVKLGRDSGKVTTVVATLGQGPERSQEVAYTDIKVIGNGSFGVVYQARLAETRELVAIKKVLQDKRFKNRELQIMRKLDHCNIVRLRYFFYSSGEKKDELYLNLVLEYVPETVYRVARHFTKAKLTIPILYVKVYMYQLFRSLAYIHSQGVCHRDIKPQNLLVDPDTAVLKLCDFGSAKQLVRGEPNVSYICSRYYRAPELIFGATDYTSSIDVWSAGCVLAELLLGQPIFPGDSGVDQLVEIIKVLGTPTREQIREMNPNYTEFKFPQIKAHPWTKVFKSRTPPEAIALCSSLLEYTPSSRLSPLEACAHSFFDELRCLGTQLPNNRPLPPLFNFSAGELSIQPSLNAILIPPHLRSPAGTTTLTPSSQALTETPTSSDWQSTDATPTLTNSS

## CC(=O)ON=C1C(=C2C(=O)Nc3cc(Br)ccc32)Nc2ccccc21 [6-Bromoindirubin-3′-acetoxime]
GSK-3
  IC50: 10 nM
CDK1-cyclin B complex
  IC50: 63000 nM

## COc1ccc(CNC(=O)Nc2ncc([N+](=O)[O-])s2)cc1 [ARA014418]
CDK2 and CDK5
  IC50: > 100000 nM

## O=C1Cc2c([nH]c3ccc(Br)cc23)-c2ncccc2N1 [Azakenpaullone]
CDK1-cyclin B complex
  IC50: 2000 nM

## O=C1Nc2cc(Br)ccc2/C1=C1/Nc2ccccc2/C1=N\O [BIO, 6-bromoindirubin-3′-oxime]
[1]
  maintenance of undifferentiated pluripotent state, human ES cells: maintaining the ES cultures in an undifferentiated pluripotent state
[2]
  maintenance of undifferentiated pluripotent state, mouse ES cells: maintaining the ES cultures in an undifferentiated pluripotent state
Murine MAPCs [3]; [8]
  Oct-4 mRNA levels: decreased in a BIO dose-dependent manner
  Rex-1 mRNA levels: decreased in a BIO dose-dependent manner
Murine MAPCs [3]; [9]
  AFP levels: higher levels of AFP
  Sox1 levels: higher levels
Murine MAPCs [3]; low concentration of BIO, MAPCs maintained at low density
  endothelial specific genes (for example, vWF) levels: higher levels of endothelial specific genes
Murine MAPCs [3]; mRNA, Q-RT-PCR
  UTF1 or E-Ras expression: did not affect
Murine MAPCs [4]; high density (ESC densities), 1 or 2 microM BIO
  Oct-4, β-catenin and E-cadherin protein expression in large dense MAPC clusters: very high levels
Murine MAPCs [4]; low-density MAPCs, 2 microM BIO
  Oct-4, β-catenin and E-cadherin protein expression in clusters: highly expressed
Murine MAPCs [5]
  clustering of MAPC: dose-dependent clustering

## [Be+2] [Beryllium]
GSK-3
  IC50: 6000 nM
CDK1-cyclin B complex
  Effect on CDK1-cyclin B complex: Inhibits CDK1

## OCCCNc1cc(-c2ccnc(Nc3cccc(Cl)c3)n2)ccn1 [CGP60474]
GSK-3
  IC50: 10 nM

## CN1CCN(c2cnc(NCCNc3ccc([N+](=O)[O-])c(N)n3)nc2-c2ccc(Cl)cc2Cl)C(=O)C1 [CT20026]
[6]; [10]
  IC50: 4 nM

## CN1CC[C@H](c2c(O)cc(O)c3c(=O)cc(-c4ccccc4Cl)oc23)[C@H](O)C1 [Flavopiridol]
GSK-3
  IC50: 450 nM

## CN(C)CCCn1cc(C2=C(c3c[nH]c4ccccc34)C(=O)NC2=O)c2ccccc21 [GF109203x, bisindolyl-maleimide I]
GSK-3β; β isoform tested; from Meijer, L. et al. (2004); read-out: IC50 GSK-3 (β); cited from earlier work
  IC50: 190 nM
CDK1-cyclin B complex
  IC50: 2300 nM

## Cn1cc(C2=C(c3cn(CCCSC(=N)N)c4ccccc34)C(=O)NC2=O)c2ccccc21 [Ro318220, bisindolyl-maleimide IX]
GSK-3β; read-out: IC50 GSK-3 (β); β isoform tested; from Meijer, L. et al. (2004); cited from earlier work
  IC50: 3 to 38 nM

## Cn1cc(C2=C(c3ccc(Cl)cc3Cl)C(=O)NC2=O)c2ccccc21 [SB216763]
CDK1-cyclin B complex
  IC50: 550 nM

## O=C1NC(=O)C(c2ccccc2[N+](=O)[O-])=C1Nc1ccc(O)c(Cl)c1 [SB415286]
CDK1-cyclin B complex
  IC50: 900 nM

## COc1ccc2c(c1)/C(=C/c1cnc[nH]1)C(=O)N2 [SU9516]
GSK-3
  IC50: 330 nM

## Cn1sc(=O)n(Cc2ccccc2)c1=O [TDZD8]
[6]; [10]
  IC50: 7000 nM

## Nc1cccc(-c2cc3c(Oc4cccc(O)c4)ncnc3[nH]2)c1 [TWS119]
GSK-3β; read-out: IC50 GSK-3 (β); cited from earlier work
  IC50: 30 nM

## [Zn] [Zinc]
GSK-3
  IC50: 15000 nM
CDK1-cyclin B complex
  Effect on CDK1-cyclin B complex: No effect

## c1nc2nc(Nc3ccc(N4CCOCC4)cc3)nc(NC3CCCCC3)c2[nH]1 [reversine]
[7]
  effect on committed myoblast: de-differentiate

## Aloisine B
GSK-3
  IC50: 750 nM
CDK1-cyclin B complex
  IC50: 850 nM

## CHIR98014
GSK-3α
  IC50: 0.65 nM
CDK1-cyclin B complex
  IC50: 3700 nM
[6]
  IC50: 0.58 nM
